Measurements: PMC7211203 (European Journal of Drug Metabolism and Pharmacokinetics, 2020)
Marks after values point to notes of the source that are not given here.

Columns and labels:
CYP3A4 [1] = settings: ref Eisai, data on file; cited from earlier work
CYP3A4 [2] = biological target: CYP3A4 (Homo sapiens, UniProt P08684); settings: cited from earlier work
[3] = phase 1 study; cited from earlier work
[4] = Safety: adverse events in patients with advanced solid tumors; type: in vivo, human
[5] = cited from earlier work
[6] = cited from earlier work; remark: listed apart in the source
[7] = safety analysis set n = 30, treatment phase

Chain of CYP3A4 (Homo sapiens, UniProt P08684) (P08684 whole entry): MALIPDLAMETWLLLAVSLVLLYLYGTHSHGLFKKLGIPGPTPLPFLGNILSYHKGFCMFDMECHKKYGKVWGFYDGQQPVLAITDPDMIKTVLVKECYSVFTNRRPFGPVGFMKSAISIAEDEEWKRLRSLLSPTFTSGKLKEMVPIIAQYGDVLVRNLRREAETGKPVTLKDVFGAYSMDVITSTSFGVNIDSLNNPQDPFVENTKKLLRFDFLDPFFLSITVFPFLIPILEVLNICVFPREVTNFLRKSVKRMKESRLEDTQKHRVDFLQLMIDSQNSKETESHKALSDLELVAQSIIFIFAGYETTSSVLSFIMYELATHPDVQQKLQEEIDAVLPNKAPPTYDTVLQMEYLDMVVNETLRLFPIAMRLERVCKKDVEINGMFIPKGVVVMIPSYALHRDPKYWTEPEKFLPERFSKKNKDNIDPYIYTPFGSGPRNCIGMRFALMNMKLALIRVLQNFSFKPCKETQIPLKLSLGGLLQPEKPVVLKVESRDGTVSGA

In the case of COc1cc2nccc(Oc3ccc(NC(=O)NC4CC4)c(Cl)c3)c2cc1C(N)=O [lenvatinib], the “Action on CYP3A4” value (CYP3A4 [1]) is listed as “weak inducer and time-dependent inhibitor of CYP3A4”, the “Effect on midazolam metabolism in physiologically based pharmacokinetic model” value (CYP3A4 [2]) is listed as “negligible effects” and the “Pharmacokinetic drug–drug interactions in combination with everolimus” value [3] is listed as “no significant pharmacokinetic drug–drug interactions”. For the same compound, the “Grade of treatment-related SAEs” value ([4]; all treatment-related SAEs) was no more than 3 grade, the “New AEs in the extension phase” value ([4]; extension phase (Eisai, data on file)) was “No new AEs” and the “Patients who died during the treatment phase” value ([4]; grade 5 TEAE (intestinal obstruction), related to underlying colon cancer) was “One”. The Tolerability ([4]; lenvatinib 24 mg once daily, patients with advanced solid tumors) was “generally well tolerated”, the “Abdominal pain upper: SAEs” value ([4]; safety analysis set n = 30) was 1 (3.3) n (%) and the “Abdominal pain: SAEs” value ([4]; safety analysis set n = 30) was 2 (6.7) n (%). For the same compound, the “Abdominal pain: TEAEs” value ([4]; safety analysis set n = 30) was 3 (10.0) n (%), the “Asthenia: SAEs” value ([4]; safety analysis set n = 30) was 1 (3.3) n (%) and the “Asthenia: TEAEs” value ([4]; safety analysis set n = 30) was 3 (10.0) n (%). The “Asthenia: treatment-related AEs” value ([4]; safety analysis set n = 30) was 2 (6.7) n (%), the “Bradycardia: SAEs” value ([4]; safety analysis set n = 30) was 1 (3.3) n (%) and the “Cardiac disorders: SAEs” value ([4]; safety analysis set n = 30) was 2 (6.7) n (%). The “Cerebral hemorrhage: SAEs” value ([4]; safety analysis set n = 30) was 1 (3.3) n (%), the “Cough: TEAEs” value ([4]; safety analysis set n = 30) was 2 (6.7) n (%) and the “Diarrhea: TEAEs” value ([4]; safety analysis set n = 30) was 7 (23.3) n (%). The “Diarrhea: treatment-related AEs” value ([4]; safety analysis set n = 30) was 3 (10.0) n (%), the “Dysphonia: TEAEs” value ([4]; safety analysis set n = 30) was 2 (6.7) n (%) and the “Dyspnea: SAEs” value ([4]; safety analysis set n = 30) was 1 (3.3) n (%). The “Dyspnea: TEAEs” value ([4]; safety analysis set n = 30) was 2 (6.7) n (%), the “Fatigue: TEAEs” value ([4]; safety analysis set n = 30) was 8 (26.7) n (%) and the “Fatigue: treatment-related AEs” value ([4]; safety analysis set n = 30) was 5 (16.7) n (%). For the same compound, the “Gastrointestinal disorders: SAEs” value ([4]; safety analysis set n = 30) was 4 (13.3) n (%), the “Gastrointestinal disorders: TEAEs” value ([4]; safety analysis set n = 30) was 12 (40.0) n (%) and the “Gastrointestinal disorders: treatment-related AEs” value ([4]; safety analysis set n = 30) was 6 (20.0) n (%). The “General disorders: SAEs” value ([4]; safety analysis set n = 30) was 1 (3.3) n (%), the “General disorders: TEAEs” value ([4]; safety analysis set n = 30) was 11 (36.7) n (%) and the “General disorders: treatment-related AEs” value ([4]; safety analysis set n = 30) was 7 (23.3) n (%). The “Headache: TEAEs” value ([4]; safety analysis set n = 30) was 3 (10.0) n (%), the “Headache: treatment-related AEs” value ([4]; safety analysis set n = 30) was 2 (6.7) n (%) and the “Hypertension: SAEs” value ([4]; safety analysis set n = 30) was 3 (10.0) n (%). For the same compound, the “Hypertension: TEAEs” value ([4]; safety analysis set n = 30) was 7 (23.3) n (%), the “Hypertension: treatment-related AEs” value ([4]; safety analysis set n = 30) was 6 (20.0) n (%) and the “Nausea: TEAEs” value ([4]; safety analysis set n = 30) was 4 (13.3) n (%). For the same compound, the “Nausea: treatment-related AEs” value ([4]; safety analysis set n = 30) was 2 (6.7) n (%), the “Nervous system disorders: SAEs” value ([4]; safety analysis set n = 30) was 1 (3.3) n (%) and the “Nervous system disorders: TEAEs” value ([4]; safety analysis set n = 30) was 5 (16.7) n (%). For the same compound, the “Nervous system disorders: treatment-related AEs” value ([4]; safety analysis set n = 30) was 2 (6.7) n (%), the “Patient deaths from TEAEs: SAEs” value ([4]; safety analysis set n = 30) was 1 (3.33) n (%) and the “Pyrexia: SAEs” value ([4]; safety analysis set n = 30) was 1 (3.3) n (%). For the same compound, the “Rectal hemorrhage: SAEs” value ([4]; safety analysis set n = 30) was 1 (3.3) n (%), the “Respiratory, thoracic, and mediastinal disorders: SAEs” value ([4]; safety analysis set n = 30) was 1 (3.3) n (%) and the “Respiratory, thoracic, and mediastinal disorders: TEAEs” value ([4]; safety analysis set n = 30) was 8 (26.7) n (%). For the same compound, the “Stress cardiomyopathy: SAEs” value ([4]; safety analysis set n = 30) was 1 (3.3) n (%), the “Vascular disorders: SAEs” value ([4]; safety analysis set n = 30) was 3 (10.0) n (%) and the “Vascular disorders: TEAEs” value ([4]; safety analysis set n = 30) was 7 (23.3) n (%). For the same compound, the “Vascular disorders: treatment-related AEs” value ([4]; safety analysis set n = 30) was 6 (20.0) n (%), the “Vomiting: TEAEs” value ([4]; safety analysis set n = 30) was 2 (6.7) n (%) and the “Vomiting: treatment-related AEs” value ([4]; safety analysis set n = 30) was 2 (6.7) n (%). For the same compound, the “Patients with any TEAEs: SAEs” value [4, 7] was 10 (33.3) n (%), the “Patients with any TEAEs: TEAEs” value [4, 7] was 26 (86.7) n (%) and the “Patients with any TEAEs: treatment-related AEs” value [4, 7] was 17 (56.7) n (%). For the same compound, the “Intestinal obstruction: SAEs” value ([4]; safety analysis set n = 30, this SAE resulted in patient death) was 1 (3.3)^c n (%), the “Patients who discontinued treatment due to a TEAE” value ([4]; treatment phase, n = 30) was 6.7% and the “Patients with SAEs considered treatment related” value ([4]; treatment phase, n = 30) was “Four”. The “Patients with TEAEs leading to lenvatinib dose modification” value ([4]; treatment phase, n = 30) was 40%, the “Patients with at least 1 TEAE” value ([4]; treatment phase, n = 30) was 86.7% and the “Patients with dose reduction” value ([4]; treatment phase, n = 30) was 13.3%. For the same compound, the “Patients with lenvatinib treatment interruption” value ([4]; treatment phase, n = 30) was 26.7%, the “SAE abdominal pain, patients” value ([4]; treatment phase, n = 30) was 6.7% and the “SAE hypertension, patients” value ([4]; treatment phase, n = 30) was 10%. For the same compound, the “TEAE diarrhea, patients” value ([4]; treatment phase, n = 30) was 23.3%, the “TEAE fatigue, patients” value ([4]; treatment phase, n = 30) was 26.7% and the “TEAE hypertension, patients” value ([4]; treatment phase, n = 30) was 23.3%. For the same compound, the “Treatment-related TEAE diarrhea, patients” value ([4]; treatment phase, n = 30) was 10.0%, the “Treatment-related TEAE fatigue, patients” value ([4]; treatment phase, n = 30) was 16.7% and the “Treatment-related TEAE hypertension, patients” value ([4]; treatment phase, n = 30) was 20.0%. For the same compound, the tmax ([5]; after dosing) was 1 to 4 h, the half-life [5] was 28 h and the “Interaction with ketoconazole (inhibitor of CYP3A4)” value [6] was “not clinically significant”.
